{"source": "paper PMC6615261", "about": "“Repurposing Azithromycin and Rifampicin Against Gram-Negative Pathogens by Combination With Peptidomimetics” (Frontiers in Cellular and Infection Microbiology, 2019)", "key": {"K. pneumoniae ST258 [1]": {"test_system": "K. pneumoniae ST258", "assay": "MIC by broth microdilution", "assay_type": "cell-based, Klebsiella pneumoniae", "experimental": "(§1) Minimal inhibitory concentrations (MICs) of peptidomimetics, antibiotics and their combinations were determined by broth microdilution according to the Clinical Laboratory Standards Institute performance standards (Clinical and Laboratory Standards Institute, [2013]). […] Since rifampicin and azithromycin mainly are used to treat infections with Gram-positive pathogens only CLSI clinical breakpoints were available for such bacteria. […] Potentiation of additional antibiotics by peptidomimetics was determined by using commercial 96-well plates containing varied concentrations of standard antibiotics (COMPAN1F; Trek Diagnostic Systems Inc.). The peptidomimetics were added immediately prior to inoculation with pathogen, and then MICs were determined as above. The MICs of peptidomimetic/antibiotic combinations were determined according to the method above, and the concentration ratios were selected based upon checkerboard results with 2:1 and 1:4 ratio of peptidomimetic with rifampicin or azithromycin, respectively. Minimal bactericidal concentrations (MBCs) were determined by using growth-curve assay plates. MIC plates were prepared as above, and then the plates were incubated at 37°C with continuous shaking. Growth was recorded at 10 min intervals as optical density (OD) at 600 nm during 24 h. At 24 h, for wells without growth, a sample was diluted 10-fold in sterile saline (0.9% sodium chloride) and plated onto MHA, following CLSI guidelines (Clinical and Laboratory Standards Institute, [1999])."}, "[2]": {"assay": "MTS/PMS cell viability assay", "assay_type": "cell-based, mouse", "settings": "mouse, NIH 3T3 fibroblasts, 1 h exposure, read-out: Cytotoxicity NIH 3T3 EC50 ± SD", "experimental": "(§2) NIH 3T3 and HepG2 cells (both from ATCC, Manassas, VA, USA) were cultured in flat-bottomed 96-well MicroWell™ plates (NUNC, Roskilde, Denmark) at seeding densities of ~23,000 and ~22,000 cells/well, respectively, and then cultured for 22–24 h under standard culturing conditions (37°C, 5% CO2, humidified air) to reach 80–90% confluence. NIH 3T3 were cultured in Dulbecco's modified Eagle's medium (DMEM) supplemented with 10% (v/v) newborn-calf serum (NCS) (Gibco, Paisly, UK), while HepG2 were cultured in Eagle's minimum essential medium (EMEM) supplemented with 10% (v/v) fetal bovine serum (FBS, Gibco, Paisly, UK), sodium pyruvate (1 mM), and non-essential amino acids (1%, v/v). Both culturing media were further supplemented with penicillin (100 U/mL), streptomycin (100 μg/mL), and L-glutamine (2 mM).\n(§3) Effect on cell viability was determined in NIH 3T3 fibroblasts and HepG2 hepatocytes by using the MTS/PMS assay measuring metabolic activity. Briefly, the adhered cells were washed with 37°C Hanks' balanced salt solution (HBSS from Sigma-Aldrich, St. Louis, MO, USA), containing 10 mM HEPES (AppliChem, Darmstadt, Germany), and adjusted to pH 7.4, and were then exposed for 1 h to 100 μL of test compound(s) dissolved in the appropriate culturing medium without serum for each cell line. After exposure the cells were washed with HBSS containing 10 mM HEPES (pH 7.4) and 100 μL of an MTS/PMS solution, consisting of 240 μg/mL MTS (Promega, Madison, WI, USA) and 2.4 μg/mL PMS (SigmaAldrich, Buchs, Switzerland) in HBSS, was added to the cells, which then were incubated for 1 h at 37°C with horizontal shaking under light protection. Absorbance was measured at 492 nm by using a POLARstar OPTIMA plate reader (BMG Labtech, Offenburg, Germany). The relative viability was calculated according to Equation (1) with absorbance values obtained after incubation of cells with test compound; incubation with SDS (0.2%, w/v in medium) defined 100% cell death (Abspos), while the absorbance of cells incubated with medium defined 0% cell death (Absneg).\n(§4) (1) Relative viability(%)=(Abssample-Abspos)/(Absneg-Abspos)×100%\n(§5) EC50 values were calculated by using GraphPad Prism 7 (GraphPad Software, La Jolla, CA, USA) via fitting of the relative cell viability to the concentration of the test compound by using Equation (2):\n(§6) (2) Relative viability(%)= Top-Bottom/1+10^(LogIC50-Log[peptidomimetic]) ×Hill slope\n(§7) With top and bottom representing the mean highest and lowest observed values, respectively. The Hill slope represents a factor for the steepness of the linear part of the curve. In order to prevent erroneous calculation, the top and bottom values were constrained to 100 and 0%, respectively. Data were collected from technical triplicates. The selectivity index was calculated as the average effect on cell viability (EC50 values for HepG2 and NIH 3T3 cells) divided by the MIC."}, "P. aeruginosa ATCC 27853 [3]": {"test_system": "P. aeruginosa ATCC 27853", "assay": "MIC by broth microdilution", "assay_type": "cell-based, Pseudomonas aeruginosa", "settings": "peptidomimetic alone", "experimental": "as §1"}, "P. aeruginosa ATCC 27853 [4]": {"test_system": "P. aeruginosa ATCC 27853", "experimental": "(§8) The potential synergistic effects in peptidomimetic-antibiotic combinations were assessed by using a two-dimensional checkerboard assay (Garcia, [2010]). Briefly, twofold dilutions of peptide and antibiotic were prepared in MBH II media along the X- and Y-axis, respectively, in 96-well plates. The inoculum was added to the plates, and subsequently these were incubated for 18–20 h. All steps for inoculum preparation and broth microdilution were in accordance with the CLSI guidelines (Clinical and Laboratory Standards Institute, [2013]). The fractional inhibitory concentration index (FICI) was calculated as [MICA(A+B)/MICA(alone)] + [MICB(A+B)/MICB(alone)], where MICA(A+B) represents the MIC of antibiotic (A) in combination with peptidomimetic (B), while MICB(A+B) represents the MIC of peptidomimetic (B) in combination with antibiotic (A). MICA(alone) and MICB(alone) represent the MIC of each compound individually. FICI values of ≤0.5 were interpreted as synergy."}, "K. pneumoniae ST258 [5]": {"test_system": "K. pneumoniae ST258", "experimental": "as §8"}, "E. coli ST131 [6]": {"test_system": "E. coli ST131", "experimental": "as §8"}, "E. coli ST131 [7]": {"test_system": "E. coli ST131", "assay": "MIC by broth microdilution", "assay_type": "cell-based, Escherichia coli", "settings": "peptidomimetic alone", "experimental": "as §1"}, "NIH 3T3 and HepG2 cells": {"test_system": "NIH 3T3 and HepG2 cells", "assay": "Effect on viability of mammalian cells (both cell lines)", "assay_type": "cell-based, mouse and human", "experimental": "as §2, §3, §4, §5, §6\nWith top and bottom representing the mean highest and lowest observed values, respectively. The Hill slope represents a factor for the steepness of the linear part of the curve. […] The selectivity index was calculated as the average effect on cell viability (EC50 values for HepG2 and NIH 3T3 cells) divided by the MIC."}, "K. pneumoniae ST258 [8]": {"test_system": "K. pneumoniae ST258", "assay": "Screening of peptidomimetic-antibiotic combinations (growth / growth inhibition)", "assay_type": "cell-based, Klebsiella pneumoniae", "set-up": "key to Growth in combination with RIF / Growth in combination with AZM: Growth (+); growth inhibition (–)", "experimental": "as §1"}, "MDR E. coli ST131": {"test_system": "MDR E. coli ST131", "assay": "Screening of peptidomimetic-antibiotic combinations (growth / growth inhibition)", "assay_type": "cell-based, Escherichia coli", "set-up": "key to Growth in combination with RIF / Growth in combination with AZM: Growth (+); growth inhibition (–)", "experimental": "as §1"}, "[9]": {"assay": "MTS/PMS cell viability assay", "assay_type": "cell-based", "settings": "human, HepG2 hepatocytes, 1 h exposure, read-out: Cytotoxicity HepG2 EC50 ± SD", "experimental": "as §2, §3, §4, §5, §6, §7"}, "K. pneumoniae ST258 [10]": {"test_system": "K. pneumoniae ST258", "assay": "Potentiation of additional antibiotics (COMPAN1F plates), MIC", "assay_type": "cell-based, Klebsiella pneumoniae", "experimental": "as §1"}, "E. coli ST131 [11]": {"test_system": "E. coli ST131", "assay": "Potentiation of additional antibiotics (COMPAN1F plates), MIC", "assay_type": "cell-based, Escherichia coli", "experimental": "as §1"}, "[12]": {"settings": "MIC of azithromycin combined with the labelled peptidomimetic"}, "[13]": {"settings": "MIC of rifampicin combined with the labelled peptidomimetic"}, "[14]": {"settings": "peptidomimetic 0.5 μM + azithromycin 1 μg/mL"}, "[15]": {"settings": "peptidomimetic 0.5 μM + rifampicin 0.5 μg/mL"}}, "note": "Like-named read-outs stand apart in the source and are kept apart here."}
{"compound": "C[C@@H](c1ccccc1)N(CCC(N)=O)C(=O)[C@H](CCCCNC(=N)N)NC(=O)CCN(C(=O)[C@H](CCCCN)NC(=O)CCN(C(=O)[C@H](CCCCNC(=N)N)NC(=O)CCN(C(=O)[C@H](CCCCN)NC(=O)CCN(C(=O)[C@H](CCCCNC(=N)N)NC(=O)CCN(C(=O)[C@H](CCCCN)NC(=O)CNCCN)[C@@H](C)c1ccccc1)[C@@H](C)c1ccccc1)[C@@H](C)c1ccccc1)[C@@H](C)c1ccccc1)[C@@H](C)c1ccccc1", "note": "[Peptidomimetic 25, NDab-Lys-βNspe-hArg-βNspe)3-NH2]", "values": [{"measurement": "Selectivity Index (SI) K. pneumoniae ST258", "setting": "K. pneumoniae ST258 [1]; average of EC50 (HepG2, NIH 3T3) divided by MIC", "value": "(16)"}, {"measurement": "MIC K. pneumoniae ST258", "setting": "K. pneumoniae ST258 [1]; peptidomimetic alone", "value": 8, "unit": "µM"}, {"measurement": "EC50 at 1 h", "setting": "[2]", "value": "167 ± 5.53", "unit": "µM"}, {"measurement": "MIC P. aeruginosa ATCC 27853", "setting": "P. aeruginosa ATCC 27853 [3]", "value": 8, "unit": "µM"}, {"measurement": "Antibiotic MIC in combination (RIF)", "setting": "P. aeruginosa ATCC 27853 [4]; P. aeruginosa ATCC 27853, MIC of rifampicin combined with the labelled peptidomimetic", "value": 0.06, "unit": "µg/mL"}, {"measurement": "Peptidomimetic MIC alone", "setting": "P. aeruginosa ATCC 27853 [4]; P. aeruginosa ATCC 27853, checkerboard", "value": 8, "unit": "µM"}, {"measurement": "Peptidomimetic MIC in combination", "setting": "P. aeruginosa ATCC 27853 [4]; P. aeruginosa ATCC 27853, combined with AZM", "value": 1, "unit": "µM"}, {"measurement": "Peptidomimetic MIC in combination", "setting": "P. aeruginosa ATCC 27853 [4]; P. aeruginosa ATCC 27853, combined with RIF", "value": 1, "unit": "µM"}, {"measurement": "Reduction of the MIC of azithromycin", "setting": "P. aeruginosa ATCC 27853 [4]; P. aeruginosa, sub-MIC concentrations of peptidomimetic", "value": "32- to 512 fold"}, {"measurement": "Antibiotic MIC in combination (AZM)", "setting": "K. pneumoniae ST258 [5]; [12]", "value": 8, "unit": "µg/mL"}, {"measurement": "Antibiotic MIC in combination (RIF)", "setting": "K. pneumoniae ST258 [5]; [13]", "value": 0.06, "unit": "µg/mL"}, {"measurement": "Peptidomimetic MIC alone", "setting": "K. pneumoniae ST258 [5]; checkerboard", "value": 8, "unit": "µM"}, {"measurement": "Peptidomimetic MIC in combination", "setting": "K. pneumoniae ST258 [5]; combined with AZM", "value": 0.5, "unit": "µM"}, {"measurement": "Peptidomimetic MIC in combination", "setting": "K. pneumoniae ST258 [5]; combined with RIF", "value": 1, "unit": "µM"}, {"measurement": "Antibiotic MIC in combination (AZM)", "setting": "E. coli ST131 [6]; [12]", "value": 0.5, "unit": "µg/mL"}, {"measurement": "Antibiotic MIC in combination (RIF)", "setting": "E. coli ST131 [6]; [13]", "value": 0.5, "unit": "µg/mL"}, {"measurement": "Peptidomimetic MIC alone", "setting": "E. coli ST131 [6]; checkerboard", "value": 2, "unit": "µM"}, {"measurement": "Peptidomimetic MIC in combination", "setting": "E. coli ST131 [6]; combined with AZM", "value": 0.25, "unit": "µM"}, {"measurement": "Peptidomimetic MIC in combination", "setting": "E. coli ST131 [6]; combined with RIF", "value": 0.25, "unit": "µM"}, {"measurement": "MIC E. coli ST131", "setting": "E. coli ST131 [7]", "value": 2, "unit": "µM"}, {"measurement": "EC50", "setting": "NIH 3T3 and HepG2 cells", "value": "80 to 170", "unit": "µM"}, {"measurement": "Growth in combination with AZM", "setting": "K. pneumoniae ST258 [8]; [14]", "value": "+"}, {"measurement": "Growth in combination with RIF", "setting": "K. pneumoniae ST258 [8]; [15]", "value": "+"}, {"measurement": "Growth in combination with AZM", "setting": "MDR E. coli ST131; [14]", "value": "–"}, {"measurement": "Growth in combination with RIF", "setting": "MDR E. coli ST131; [15]", "value": "–"}, {"measurement": "EC50 at 1 h", "setting": "[9]", "value": "85 ± 3.06", "unit": "µM"}]}
{"compound": "Trimethoprim/sulfamethoxazole", "values": [{"measurement": "MIC of antibiotic in presence of peptidomimetic 1", "setting": "K. pneumoniae ST258 [10]; + 1 μM peptidomimetic 1", "value": ">38", "unit": "µg/mL"}, {"measurement": "MIC of antibiotic in presence of peptidomimetic 15", "setting": "K. pneumoniae ST258 [10]; + 1 μM peptidomimetic 15", "value": ">38", "unit": "µg/mL"}, {"measurement": "MIC of antibiotic in presence of peptidomimetic 26", "setting": "K. pneumoniae ST258 [10]; + 1 μM peptidomimetic 26", "value": ">38", "unit": "µg/mL"}, {"measurement": "MIC of antibiotic alone", "setting": "K. pneumoniae ST258 [10]; no peptidomimetic", "value": ">38", "unit": "µg/mL"}, {"measurement": "MIC of antibiotic in presence of peptidomimetic 26", "setting": "E. coli ST131 [11]; + 0.25 μM peptidomimetic 26", "value": ">38", "unit": "µg/mL"}, {"measurement": "MIC of antibiotic in presence of peptidomimetic 1", "setting": "E. coli ST131 [11]; + 0.5 μM peptidomimetic 1", "value": ">38", "unit": "µg/mL"}, {"measurement": "MIC of antibiotic in presence of peptidomimetic 15", "setting": "E. coli ST131 [11]; + 0.5 μM peptidomimetic 15", "value": ">38", "unit": "µg/mL"}, {"measurement": "MIC of antibiotic alone", "setting": "E. coli ST131 [11]; no peptidomimetic", "value": ">38", "unit": "µg/mL"}]}
